Test results taken from patent publication US20060089378A1 (priority 2004, published 2006).
Read-outs that look alike come from different tables or passages of the source.

Tests used:
Cannabinoid CB2 Receptor = biological target: T1, Cannabinoid CB2 Receptor (Homo sapiens, UniProt P34972); test: Binding assay for CB2 agonists or inverse agonists (radioligand competition, membranes of transfected SK-N-MC cells); conditions: read-out: Cannabinoid CB2 Receptor Binding percent inhibition
T1 construct: expressed in transfected cells
T1 sequence (P34972 whole entry): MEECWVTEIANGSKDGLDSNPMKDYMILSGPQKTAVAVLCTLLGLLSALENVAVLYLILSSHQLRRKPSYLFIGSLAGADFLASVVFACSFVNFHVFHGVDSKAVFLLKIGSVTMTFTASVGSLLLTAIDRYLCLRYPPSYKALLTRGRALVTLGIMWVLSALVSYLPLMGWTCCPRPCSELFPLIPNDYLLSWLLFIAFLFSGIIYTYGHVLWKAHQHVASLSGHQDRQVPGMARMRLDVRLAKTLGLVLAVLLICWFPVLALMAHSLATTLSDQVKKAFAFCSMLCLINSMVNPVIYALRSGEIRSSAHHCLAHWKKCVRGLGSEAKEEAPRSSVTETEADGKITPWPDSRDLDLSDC

CB1 receptor (human) = CB1 receptor (human) (Homo sapiens, UniProt P21554); test: cell-based
CB1 receptor (human), sequence (P21554 whole entry): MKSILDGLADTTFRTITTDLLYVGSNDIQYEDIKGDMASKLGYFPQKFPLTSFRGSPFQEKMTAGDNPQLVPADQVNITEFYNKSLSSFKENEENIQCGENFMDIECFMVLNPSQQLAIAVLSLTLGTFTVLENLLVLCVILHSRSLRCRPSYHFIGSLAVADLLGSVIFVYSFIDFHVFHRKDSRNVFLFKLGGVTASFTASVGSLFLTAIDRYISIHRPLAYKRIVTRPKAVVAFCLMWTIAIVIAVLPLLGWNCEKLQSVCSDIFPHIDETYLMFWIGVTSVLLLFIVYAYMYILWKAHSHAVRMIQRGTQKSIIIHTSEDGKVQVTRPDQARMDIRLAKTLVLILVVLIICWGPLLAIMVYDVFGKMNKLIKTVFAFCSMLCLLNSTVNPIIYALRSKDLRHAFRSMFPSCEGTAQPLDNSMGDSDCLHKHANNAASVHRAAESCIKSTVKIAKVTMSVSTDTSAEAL

Cannabinoid CB1 Receptor = biological target: T2, Cannabinoid CB1 Receptor (Homo sapiens, UniProt P21554); test: Binding assay for CB1 agonists or inverse agonists (radioligand competition, membranes of transfected SK-N-MC cells)
T2 construct: expressed in transfected cells
T2 sequence (P21554 whole entry): as above

[1] = test concentration of 0.2 μM, compounds without an IC50 binding value

Compound C[C@@H](NC(=O)c1nn(-c2ccc(Cl)cc2Cl)c2c1CN(S(=O)(=O)N(C)C)C/C2=C\c1ccc(F)cc1)c1ccccc1 [Cpd 39, (7E)-1-(2,4-dichloro-phenyl)-5-dimethylsulfamoyl-7-(4-fluoro-benzylidene)-4,5,6,7-tetrahydro-1H-pyrazolo[4,3-c]pyridine-3-carboxylic acid [(1R)-1-phenyl-ethyl]-amide] has an inhibition at 0.2 µM (Cannabinoid CB2 Receptor; [1]) of 42%, an EC50 (CB1 receptor (human)) of 1 nM and an IC50 (Cannabinoid CB1 Receptor) of 2 nM.
COc1ccc(/C=C2\CN(S(C)(=O)=O)Cc3c(C(=O)N[C@H](C)c4ccccc4)nn(-c4ccc(Cl)cc4Cl)c32)cc1 [Cpd 40, (7E)-1-(2,4-dichloro-phenyl)-5-methanesulfonyl-7-(4-methoxy-benzylidene)-4,5,6,7-tetrahydro-1H-pyrazolo[4,3-c]pyridine-3-carboxylic acid [(1R)-1-phenyl-ethyl]-amide] gave an inhibition at 0.2 µM (Cannabinoid CB2 Receptor) of 47%, an EC50 (CB1 receptor (human)) of 1 nM and an IC50 (Cannabinoid CB1 Receptor) of 2 nM.
CCNC(=O)N1C/C(=C\c2ccc(OC)cc2)c2c(c(C(=O)N[C@H](C)c3ccccc3)nn2-c2ccc(Cl)cc2Cl)C1 [Cpd 41, (7E)-1-(2,4-dichloro-phenyl)-7-(4-methoxy-benzylidene)-1,4,6,7-tetrahydro-pyrazolo[4,3-c]pyridine-3,5-dicarboxylic acid 5-ethylamide 3-{[(1R)-1-phenyl-ethyl]-amide}] showed an inhibition at 0.2 µM (Cannabinoid CB2 Receptor) of 27%, an EC50 (CB1 receptor (human)) of 0.2 nM and an IC50 (Cannabinoid CB1 Receptor) of 9 nM.
Compound COc1ccc(/C=C2\CN(C(C)=O)Cc3c(C(=O)N[C@H](C)c4ccccc4)nn(-c4ccc(Cl)cc4Cl)c32)cc1 [Cpd 42, (7E)-5-acetyl-1-(2,4-dichloro-phenyl)-7-(4-methoxy-benzylidene)-4,5,6,7-tetrahydro-1H-pyrazolo[4,3-c]pyridine-3-carboxylic acid [(1R)-1-phenyl-ethyl]-amide] has an inhibition at 0.2 µM (Cannabinoid CB2 Receptor) of 38%, an EC50 (CB1 receptor (human)) of 1 nM and an IC50 (Cannabinoid CB1 Receptor) of 5 nM.
With CCOC(=O)CN1C/C(=C\c2ccc(F)cc2)c2c(c(C(=O)N[C@H](C)c3ccccc3)nn2-c2ccc(Cl)cc2Cl)C1 [Cpd 43, (7E)-[1-(2,4-dichloro-phenyl)-7-(4-fluoro-benzylidene)-3-[(1R)-1-phenyl-ethylcarbamoyl]-1,4,6,7-tetrahydro-pyrazolo[4,3-c]pyridin-5-yl]-acetic acid ethyl ester] the inhibition at 0.2 µM (Cannabinoid CB2 Receptor) was 36%, the EC50 (CB1 receptor (human)) was 0.6 nM and the IC50 (Cannabinoid CB1 Receptor) was 2 nM.
With COC(=O)N1C/C(=C\c2ccc(OC)cc2)c2c(c(C(=O)N[C@H](C)c3ccccc3)nn2-c2ccc(Cl)cc2Cl)C1 [Cpd 44] the inhibition at 0.2 µM (Cannabinoid CB2 Receptor) was 69%, the EC50 (CB1 receptor (human)) was 0.2 nM and the IC50 (Cannabinoid CB1 Receptor) was 2 nM.
Work on COc1ccc(/C=C2\CN(C=O)Cc3c(C(=O)N[C@H](C)c4ccccc4)nn(-c4ccc(Cl)cc4Cl)c32)cc1 [Cpd 45, (7E)-1-(2,4-dichloro-phenyl)-5-formyl-7-(4-methoxy-benzylidene)-4,5,6,7-tetrahydro-1H-pyrazolo[4,3-c]pyridine-3-carboxylic acid [(1R)-1-phenyl-ethyl]-amide] yielded an inhibition at 0.2 µM (Cannabinoid CB2 Receptor) of 45%, an EC50 (CB1 receptor (human)) of 0.1 nM and an IC50 (Cannabinoid CB1 Receptor) of 3 nM.
Work on C[C@@H](NC(=O)c1nn(-c2ccc(Cl)cc2Cl)c2c1CN(C=O)C/C2=C\c1ccc(F)cc1)c1ccccc1 [Cpd 46, (7E)-1-(2,4-dichloro-phenyl)-7-(4-fluoro-benzylidene)-5-formyl-4,5,6,7-tetrahydro-1H-pyrazolo[4,3-c]pyridine-3-carboxylic acid [(1R)-1-phenyl-ethyl]-amide] yielded an inhibition at 0.2 µM (Cannabinoid CB2 Receptor) of 18%, an EC50 (CB1 receptor (human)) of 0.1 nM and an IC50 (Cannabinoid CB1 Receptor) of 6 nM.
CCOC(=O)CN1C/C(=C\c2ccc(OC)cc2)c2c(c(C(=O)N[C@H](C)c3ccccc3)nn2-c2ccc(Cl)cc2Cl)C1 [Cpd 48, (7E)-[1-(2,4-dichloro-phenyl)-7-(4-methoxy-benzylidene)-3-[(1R)-1-phenyl-ethylcarbamoyl]-1,4,6,7-tetrahydro-pyrazolo[4,3-c]pyridin-5-yl]-acetic acid ethyl ester] gave an inhibition at 0.2 µM (Cannabinoid CB2 Receptor) of 38%, an EC50 (CB1 receptor (human)) of 0.2 nM and an IC50 (Cannabinoid CB1 Receptor) of 4 nM.
Work on COc1ccc(/C=C2\CNCc3c(C(=O)NC(C)c4ccccn4)nn(-c4ccc(Cl)cc4Cl)c32)cc1 (stereo not drawn) [Cpd 49, (7E)-1-(2,4-dichloro-phenyl)-7-(4-methoxy-benzylidene)-4,5,6,7-tetrahydro-1H-pyrazolo[4,3-c]pyridine-3-carboxylic acid (1-pyridin-2-yl-ethyl)-amide] yielded an inhibition at 0.2 µM (Cannabinoid CB2 Receptor) of 19%, an EC50 (CB1 receptor (human)) of 1 nM and an IC50 (Cannabinoid CB1 Receptor) of 100 nM.
COc1ccc(/C=C2\CNCc3c(C(=O)NN4CCCCC4)nn(-c4ccc(Cl)cc4Cl)c32)cc1 [Cpd 50, (7E)-1-(2,4-dichloro-phenyl)-7-(4-methoxy-benzylidene)-4,5,6,7-tetrahydro-1H-pyrazolo[4,3-c]pyridine-3-carboxylic acid piperidin-1-ylamide] was tested, and the inhibition at 0.2 µM (Cannabinoid CB2 Receptor) was 20%, the EC50 (CB1 receptor (human)) was 2 nM and the IC50 (Cannabinoid CB1 Receptor) was 100 nM.
Compound COc1ccc(/C=C2\CN(S(C)(=O)=O)Cc3c(C(=O)NN4CCCCC4)nn(-c4ccc(Cl)cc4Cl)c32)cc1 [Cpd 53, (7E)-1-(2,4-dichloro-phenyl)-5-methanesulfonyl-7-(4-methoxy-benzylidene)-4,5,6,7-tetrahydro-1H-pyrazolo[4,3-c]pyridine-3-carboxylic acid piperidin-1-ylamide] has an inhibition at 0.2 µM (Cannabinoid CB2 Receptor) of 29%, an EC50 (CB1 receptor (human)) of 5 nM and an IC50 (Cannabinoid CB1 Receptor) of 30 nM.
COc1ccc(/C=C2\CN(C(C)=O)Cc3c(C(=O)NN4CCCCC4)nn(-c4ccc(Cl)cc4Cl)c32)cc1 [Cpd 54, (7E)-5-acetyl-1-(2,4-dichloro-phenyl)-7-(4-methoxy-benzylidene)-4,5,6,7-tetrahydro-1H-pyrazolo[4,3-c]pyridine-3-carboxylic acid piperidin-1-ylamide] showed an inhibition at 0.2 µM (Cannabinoid CB2 Receptor) of 24%, an EC50 (CB1 receptor (human)) of 5 nM and an IC50 (Cannabinoid CB1 Receptor) of 40 nM.
COC(=O)N1C/C(=C\c2ccc(OC)cc2)c2c(c(C(=O)NN3CCCCC3)nn2-c2ccc(Cl)cc2Cl)C1 [Cpd 55, (7E)-1-(2,4-dichloro-phenyl)-7-(4-methoxy-benzylidene)-3-(piperidin-1-ylcarbamoyl)-1,4,6,7-tetrahydro-pyrazolo[4,3-c]pyridine-5-carboxylic acid methyl ester] was tested, and the inhibition at 0.2 µM (Cannabinoid CB2 Receptor) was 66%, the EC50 (CB1 receptor (human)) was 2 nM and the IC50 (Cannabinoid CB1 Receptor) was 5 nM.
With CCNC(=O)N1C/C(=C\c2ccc(OC)cc2)c2c(c(C(=O)NN3CCCCC3)nn2-c2ccc(Cl)cc2Cl)C1 [Cpd 56, (7E)-1-(2,4-dichloro-phenyl)-7-(4-methoxy-benzylidene)-1,4,6,7-tetrahydro-pyrazolo[4,3-c]pyridine-3,5-dicarboxylic acid 5-ethylamide 3-piperidin-1-ylamide] the inhibition at 0.2 µM (Cannabinoid CB2 Receptor) was 28%, the EC50 (CB1 receptor (human)) was 7 nM and the IC50 (Cannabinoid CB1 Receptor) was 20 nM.
With C[C@@H](NC(=O)c1nn(-c2ccc(Cl)cc2)c2c1CN(C(=O)OC(C)(C)C)C/C2=C\c1ccc(F)cc1)c1ccccc1 [Cpd 57, (7E)-1-(4-chloro-phenyl)-7-(4-fluoro-benzylidene)-3-[(1R)-1-phenyl-ethylcarbamoyl]-1,4,6,7-tetrahydro-pyrazolo[4,3-c]pyridine-5-carboxylic acid tert-butyl ester] the inhibition at 0.2 µM (Cannabinoid CB2 Receptor; [1]) was 13%, the EC50 (CB1 receptor (human)) was 20 nM and the IC50 (Cannabinoid CB1 Receptor) was 30 nM.
Compound COc1ccc(/C=C2\CN(S(=O)(=O)N(C)C)Cc3c(C(=O)NN4CCCCC4)nn(-c4ccc(Cl)cc4Cl)c32)cc1 [Cpd 58, (7E)-1-(2,4-dichloro-phenyl)-5-dimethylsulfamoyl-7-(4-methoxy-benzylidene)-4,5,6,7-tetrahydro-1H-pyrazolo[4,3-c]pyridine-3-carboxylic acid piperidin-1-ylamide] has an inhibition at 0.2 µM (Cannabinoid CB2 Receptor) of 53%, an EC50 (CB1 receptor (human)) of 3 nM and an IC50 (Cannabinoid CB1 Receptor) of 20 nM.
For CCOC(=O)CN1C/C(=C\c2ccc(OC)cc2)c2c(c(C(=O)NN3CCCCC3)nn2-c2ccc(Cl)cc2Cl)C1 [Cpd 59, (7E)-[1-(2,4-dichloro-phenyl)-7-(4-methoxy-benzylidene)-3-(piperidin-1-ylcarbamoyl)-1,4,6,7-tetrahydro-pyrazolo[4,3-c]pyridin-5-yl]-acetic acid ethyl ester], the inhibition at 0.2 µM (Cannabinoid CB2 Receptor) was 23%, the EC50 (CB1 receptor (human)) was 30 nM and the IC50 (Cannabinoid CB1 Receptor) was 40 nM.
For COc1ccc(/C=C2\CN(C(C)=O)Cc3c(C(=O)NC(C)c4ccccn4)nn(-c4ccc(Cl)cc4Cl)c32)cc1 (stereo not drawn) [Cpd 60, (7E)-5-acetyl-1-(2,4-dichloro-phenyl)-7-(4-methoxy-benzylidene)-4,5,6,7-tetrahydro-1H-pyrazolo[4,3-c]pyridine-3-carboxylic acid (1-pyridin-2-yl-ethyl)-amide], the inhibition at 0.2 µM (Cannabinoid CB2 Receptor; [1]) was 28%, the EC50 (CB1 receptor (human)) was 7 nM and the IC50 (Cannabinoid CB1 Receptor) was 20 nM.
Work on CCNC(=O)N1C/C(=C\c2ccc(OC)cc2)c2c(c(C(=O)NC(C)c3ccccn3)nn2-c2ccc(Cl)cc2Cl)C1 (stereo not drawn) [Cpd 61, (7E)-1-(2,4-dichloro-phenyl)-7-(4-methoxy-benzylidene)-1,4,6,7-tetrahydro-pyrazolo[4,3-c]pyridine-3,5-dicarboxylic acid 5-ethylamide 3-[(1-pyridin-2-yl-ethyl)-amide]] yielded an inhibition at 0.2 µM (Cannabinoid CB2 Receptor) of 7%, an EC50 (CB1 receptor (human)) of 5 nM and an IC50 (Cannabinoid CB1 Receptor) of 20 nM.
For COC(=O)N1C/C(=C\c2ccc(OC)cc2)c2c(c(C(=O)NC(C)c3ccccn3)nn2-c2ccc(Cl)cc2Cl)C1 (stereo not drawn) [Cpd 62, (7E)-1-(2,4-dichloro-phenyl)-7-(4-methoxy-benzylidene)-3-(1-pyridin-2-yl-ethylcarbamoyl)-1,4,6,7-tetrahydro-pyrazolo[4,3-c]pyridine-5-carboxylic acid methyl ester], the inhibition at 0.2 µM (Cannabinoid CB2 Receptor) was 70%, the EC50 (CB1 receptor (human)) was 2 nM and the IC50 (Cannabinoid CB1 Receptor) was 5 nM.
For COc1ccc(/C=C2\CN(S(C)(=O)=O)Cc3c(C(=O)NC(C)c4ccccn4)nn(-c4ccc(Cl)cc4Cl)c32)cc1 (stereo not drawn) [Cpd 63, (7E)-1-(2,4-dichloro-phenyl)-5-methanesulfonyl-7-(4-methoxy-benzylidene)-4,5,6,7-tetrahydro-1H-pyrazolo[4,3-c]pyridine-3-carboxylic acid (1-pyridin-2-yl-ethyl)-amide], the inhibition at 0.2 µM (Cannabinoid CB2 Receptor) was 48%, the EC50 (CB1 receptor (human)) was 3 nM and the IC50 (Cannabinoid CB1 Receptor) was 6 nM.
